In patent US20250282714A1, “COMPOSITIONS FOR AND METHODS OF MODULATING RNA STABILITY” (Duke University, priority 2022, published 2025):
Values joined by “and” are separate entries in the source; they are usually repeats but may differ in a detail not shown here. Equal entries are not always repeated. “Also recorded” adds a separate entry of the source.

Key:
MALAT1 triple helix [1] = assay: Differential scanning fluorimetry (DSF), thermal stability; assay type: binding, human; details: for effect on MALAT1 triplex thermal stability (in words): DSF
Protocol: Differential scanning fluorimetry experiments were performed as previously reported. (Donlic A, et al. (2020) Nucleic Acids Res. 48(14):7653-7664). All experiments were performed in white 96 well plates in a LightCycler® 96 (Roche). In a typical experiment, 4 μM of RNA was annealed in the same buffer used for indicator displacement assays (20 mM HEPES-KOH, 52.6 mM KCl, 0.1 mM MgCl2, pH=7.4) by heating at 95° C. for 3 minutes, snap-cooling on ice for 10 minutes, and leaving the solution at room temperature for 1 hr. Then, 42 μL of this solution was aliquoted to wells and 5 μM of ligand was added (2.5 μL of water, 2.0 μL of DMSO, 0.5 μL of 500 μM small molecule stock). The mixture was left to incubate at room temperature for 5 minutes, after which 3 μL of a 20 μM Quant-iT™ RiboGreen™ (ThermoFisher Scientific) dye stock solution in appropriate buffer was added to each well. The 96 well plate was then sealed with an optically clear foil and centrifuged for 1 minute at 4000 rpm prior to being placed in the instrument. The light cycler program was created by selecting the melting curve method; fluorescence intensity was monitored using the SYBR Green I/HRM dye filter combination (465-510 nm) from 37-98° C. at a ramp rate of 0.01° C./second with 150 acquisitions per° C. Melting profiles were obtained by Tm analysis in the LightCycler® 96 software (SW 1.1).
The MALAT1 triple helix is known to confer stability to the full-length transcript and protect it from RNase-mediated degradation, ultimately resulting in transcript accumulation and aggregation in nuclear speckles. (Brown J A, (2020) WIREs RNA. 11(6):e1598; Wilusz J E, et al. (2012) Genes Dev. 26(21):2392-2407; Brown J A, et al. (2014) Nat Struct Mol Biol. 21(7):633-640; Tycowski K T, et al. (2016) Cell Rep. 15(6):1266-1276). To better understand how the diminazene focused library affects the MALAT1 triplex stability, the entire library was evaluated via differential scanning fluorimetry (DSF) (FIG. 5A). This method allows for rapid assessment of small molecule effects on nucleic acid thermal stability (Silvers R, et al. (2015) Chembiochem. 16(7):1109-1114) in a 96-well plate format, substantially reducing the time and cost associated with traditional UV-melting experiments.
The bi-phasic melting profile distinctive of triple helices is attributed to an initial melting of the Hoogsteen triple base pairs followed by dissociation of Watson-Crick-Franklin base pairs (FIG. 16A-FIG. 16E). (Pilch D S, et al. (1995) Biochemistry. 34(49):16107-16124). At an equimolar ratio of RNA:small molecule, a range of thermal stabilization of the first (Tm1) was observed, but not the second (Tm2) melting peak (FIG. 5A, FIG. 13A-FIG. 13Z). At increasing small molecule concentration, a dose-dependent increase in ΔTm1 but not in ΔTm2 was observed, indicating small molecule interactions in the triplex region and not in the upper stem region (FIG. 15).

MALAT1 triple helix [2] = assay: RiboGreen indicator displacement assay (IDA); assay type: binding, human; details: for affinity for the MALAT1 triple helix (in words): RiboGreen IDA
Protocol: The protocol was adapted from a previously reported procedure. (Donlic A, et al. (2020) Nucleic Acids Res. 48(14):7653-7664). A serial dilution of the MALAT1 triple helix RNA was performed in HEPES buffer (20 mM HEPES-KOH, 52.6 mM KCl, 0.1 mM MgCl2, pH=7.4) in a 96 well plate in triplicate. […] of each dilution were transferred to a 384 well plate followed by […] of a 500 nM solution of RiboGreen dye in the same buffer (Invitrogen™). The plates were excited at 487 nm (8 nm slit) and emission was recorded at 530 nm (8 nm slit, focal height 11.3 mm) using a CLARIOstar plate reader (BMG labtech). The affinity of the dye for the RNA construct was determined by fitting the raw fluorescence in GraphPad Prism version 8.3.1 for Macintosh (GraphPad Software, La Jolla California USA, (www.graphpad.com)) by fitting to the Log[Agonist] vs. response—variable slope model that using Equation (1) below.
where Y is normalized % change in fluorescence intensity, X is RNA concentration, Bottom is lowest fluorescence % change and Top is highest fluorescence % change. Affinity of the dye for the RNA construct was used as the ideal RNA concentration (174 nM) for small molecule titrations.
A serial dilution of small molecule (0, 0.5 μM, 1.0 μM, 2.5 μM, 5 μM, 7.5 μM, 10.0 μM, 12.5 μM, 25 μM, 50 µM, 75 μM, 100 μM, 125 μM, 150 μM, 250 μM, 500 µM) was performed in HEPES buffer (20 mM HEPES-KOH, 52.6 mM KCl, 0.1 mM MgCl2, pH=7.4) in a 96 well plate in triplicate. Then, 8 μL of each dilution were transferred to a 384 well plate, followed by 8 μL of a 174 nM solution of MALAT1 RNA and […] of RiboGreen™ (Invitrogen™). The RNA was previously annealed by heating to 95° C. for 5 minutes and cooling to 0° C. on ice for 30 minutes. The 384 well plates were shaken for 5 minutes, centrifuged at 4000 rpm for 1 minute, and incubated in the dark for 20 minutes. The plates were excited at 487 nm (8 nm slit) and emission was read at 525 nm (8 nm slit, focal height […]) using a CLARIOstar plate reader (BMG Labtech). Percent fluorescence indicator displacement (% FID) was calculated by subtracting and, subsequently, dividing by the blank wells with RNA-dye complex and no small molecule as shown in Equation (2).
Where Fo is the fluorescence of the blank well with RNA+dye and no small molecule and F is the fluorescence of the well with all three components (RNA+dye+small molecule).
Each technical triplicate was averaged, and the resulting FID values were averaged between three independent experiments. The binding curve and Log (CD50) value was obtained by using a non-linear fit curve (Log[Agonist] vs. response) with variable slope at four parameters (GraphPad Prism Software version for Macintosh 8.3.1, La Jolla, California, USA (www.graphpadprism.com)) as shown in Equation 1. Reported values are averages of three independent experiments=standard deviation.
Given the structural differences between secondary and tertiary structures, where more continuous and complex base-pairing occurs, the design and optimization of an RNA triple helix IDA amenable to HTS was the first focused on. The utility of RiboGreen™ dye was confirmed as an indicator. The RiboGreen™ structure is proprietary, and stoichiometry is thus unconfirmed. Upon assay optimization, the 21-member library was screened using a 16-point titration in three independent replicates (FIG. 2A, FIG. 12A-FIG. 12U).

MALAT1 triple helix [3] = assay: RNase A enzymatic degradation assay; assay type: biochemical, human; details: for stabilizing / destabilizing compound (as listed 'in an aspect'): stabilizing = less, destabilizing = more degradation in an enzymatic assay than control
Protocol: The procedure was adapted from a published protocol for exonucleolytic enzymatic degradation assay. (Donlic A, et al. (2020) Nucleic Acids Res. 48(14):7653-7664). The MALAT1 destabilizing small molecules published by Le Grice (Abulwerdi F A, et al. (2019) ACS Chem Biol. 14(2):223-235) and co-workers SM5 and SM16 were purchased from ChemBridge. For a typical 70 μL reaction, […] of MALAT1 triple helix RNA was annealed in the same buffer used for IDA and DSF experiments (20 mM HEPES-KOH, 52 mM KCl, 0.1 mM MgCl2, pH=7.4) by heating at 95° C. for 3 minutes, snap-cooling on ice for 10 minutes, and leaving the solution at room temperature for 1 hr.
RNase A enzyme (ThermoFisher) was diluted to 1.46 nM and incubated with 1 M NaCl for 30-35 minutes to achieve ssRNA selectivity as reported. (Struhl K, et al. (1989) Current Protocols in Molecular Biology. 8(1):3.13.1-3.13.3). Next, the RNA was mixed with 0.2 μM of a GC-rich DNA duplex, […] of small molecule/DMSO and incubated at room temperature for 20 minutes. Following the incubation, […] of RNase A was added, and the reaction was incubated at 37° C. for 1 hour in a thermal cycler with a heated lid (Eppendorf). 4 μL timepoint aliquots were taken at 0, 5, 10, 30, and 60 minutes, 4 μL of 2×RNA loading dye was added to each aliquot (ThermoFischer Scientific), and samples were stored at −80° C. prior to gel analysis. Reactions were analyzed on pre-cast 15% PAGE-Urea gels (Invitrogen) in 1×TBE buffer. Aliquots were thawed from −80° C. storage and heated to 95° C. for 15 minutes prior to gel loading and […] were loaded in each well. Gels were run for 45 minutes at 180 V, stained with Diamond™ Nucleic Acid dye (Promega), and visualized on an iBright 500 (ThermoFisher). DMSO controls were ran with every set of 4 small molecules to ensure consistency of enzyme activity and RNA integrity. Gel band intensity of the MALAT1 triple helix and DNA loading control were quantified using ImageJ software. (Rueden C T, et al. (2017) BMC Bioinformatics. 18(1):529).
To quantify time-dependent endonucleolytic degradation for each sample, the intensity was normalized using Equation (3), and fold-difference was calculated as listed in Equation (4) as previously reported. (Donlic A, et al. (2020) Nucleic Acids Res. 48(14):7653-7664).
where y is normalized RNA area for a specific time point and the sample (tx), TH (triple helix). Area is the raw band intensity for the RNA in the lane corresponding to time point x for that sample, LC (loading control). Area (t0) is the raw band intensity for the DNA in the lane corresponding to the 0 minute time point for the sample, and LC Area (tx) is the raw band intensity for the DNA in the lane corresponding to time point x for that sample.
where y is fold-difference of the exonucleolytic degradation for the specific sample, with normalized areas for its specific time point x and time point 0 calculated as described in Equation (3). Percent RNA degraded was calculated for every time point using Equation (5).
% RNA degraded=(Normalized area (t0)−Normalized area (tx))*100 (Equation 5)
Experimental results shown in FIG. 6C are plotted as three independent replicates and standard deviation between replicates as error bars. Relative fold change between treated condition and DMSO was calculated from Equation (6).
The library was screened using a more biologically relevant in vitro enzymatic degradation assay. Previous work evaluated the effect on triplex degradation of various ionic buffer conditions (Ageeli A A, et al. (2018) Nucleic Acids Res. 47(3):1468-1481) and a sub-set of DPF small molecules (Donlic A, et al. (2020) Nucleic Acids Res. 48(14):7653-7664) using E. coli RNase R exonuclease as it degrades from 3′ to 5′, reporting on the availability of the poly(A) tail normally sequestered in the triplex construct. […]

[4] = 5-minute time point, relative to DMSO control

CCCCNC(=N)c1ccc(/N=N/Nc2ccc(C(=N)NCCCC)cc2)cc1 [DMZ-P17]
effect on MALAT1 triplex thermal stability (in words) (MALAT1 triple helix [1]): negligible thermal stabilization
affinity for the MALAT1 triple helix (in words) (MALAT1 triple helix [2]): moderate affinity

CN(C)CCCNC(=N)c1ccc(/N=N/Nc2ccc(C(=N)NCCCN(C)C)cc2)cc1 [DMZ-P1]
effect on MALAT1 triplex thermal stability (in words) (MALAT1 triple helix [1]): increases in thermal stability
effect on Tm1 (ΔTm1, first melting peak) (MALAT1 triple helix [1]; equimolar RNA:small molecule, versus DMSO vehicle): approximately 6.1 °C
stabilizer / destabilizer classification by RNase A degradation (MALAT1 triple helix [3]; [4]): destabilizers
strength class of stabilizer / destabilizer (change in degradation) (MALAT1 triple helix [3]; [4]): weak destabilizer (weak destabilizer (<50% increase in degradation))

N=C(NCc1ccco1)c1cccc(/N=N/Nc2cccc(C(=N)NCc3ccco3)c2)c1 [DMZ-M15]
effect on MALAT1 triplex thermal stability (in words) (MALAT1 triple helix [1]): negligible thermal stabilization
affinity for the MALAT1 triple helix (in words) (MALAT1 triple helix [2]): moderate affinity

N=C(N)c1ccc(/N=N/Nc2ccc(C(=N)N)cc2)cc1 [DMZ-P0, diminazene, reference compound]
effect on MALAT1 triplex thermal stability (in words) (MALAT1 triple helix [1]): increases in thermal stability
stabilizer / destabilizer classification by RNase A degradation (MALAT1 triple helix [3]; [4]): destabilizers

N=C(NCCc1cccnc1)c1cccc(/N=N/Nc2cccc(C(=N)NCCc3cccnc3)c2)c1 [DMZ-M3]
effect on MALAT1 triplex thermal stability (in words) (MALAT1 triple helix [1]): negligible thermal stabilization
affinity for the MALAT1 triple helix (in words) (MALAT1 triple helix [2]): moderate affinity

N=C(NCc1ccc(Cl)cc1)c1ccccc1/N=N/Nc1ccccc1C(=N)NCc1ccc(Cl)cc1 [DMZ-O5]
stabilizer / destabilizer classification by RNase A degradation (MALAT1 triple helix [3]; [4]): much stronger destabilizing effect
stabilizing / destabilizing compound (as listed 'in an aspect') (MALAT1 triple helix [3]): stabilizing; also recorded: destabilizing

N=C(NCc1ccccc1)c1cccc(/N=N/Nc2cccc(C(=N)NCc3ccccc3)c2)c1 [DMZ-M4]
effect on MALAT1 triplex thermal stability (in words) (MALAT1 triple helix [1]): increases in thermal stability; also recorded: mediocre
increase of the amount of MALAT1 degraded at 5 minutes (MALAT1 triple helix [3]; [4]): 2 fold and > 2 fold
stabilizer / destabilizer classification by RNase A degradation (MALAT1 triple helix [3]; [4]): destabilizers
affinity for the MALAT1 triple helix (in words) (MALAT1 triple helix [2]): mediocre affinity

N=C(NCc1ccccc1)c1ccccc1/N=N/Nc1ccccc1C(=N)NCc1ccccc1 [DMZ-O4]
affinity for the MALAT1 triple helix (in words) (MALAT1 triple helix [2]): no affinity

CN(/N=N/c1ccc(C(=N)NCCC2CCN(Cc3ccccc3)CC2)nc1)c1ccc(C(=N)NCCC2CCN(CC3C=CC=CC3)CC2)nc1 (stereo not shown) [DMZ-NMe-mPy-P1]
stabilizing / destabilizing compound (as listed 'in an aspect') (MALAT1 triple helix [3]): destabilizing

N=C(NCc1ccc(Cl)cc1)c1ccc(/N=N/Nc2ccc(C(=N)NCc3ccc(Cl)cc3)cc2)cc1 [DMZ-P5]
fold higher affinity, para scaffold versus ortho scaffold (MALAT1 triple helix [2]; subunit R-5: DMZ-P5 versus DMZ-O5): 13 fold

CN(C)c1ccc(CN2CCC(CCNC(=N)c3ccc(/N=N/N(C)c4ccc(C(=N)NCCC5CCN(Cc6ccc(N(C)C)cc6)CC5)cc4)cc3)CC2)cc1 [DMZ-NMe-P38]
stabilizing / destabilizing compound (as listed 'in an aspect') (MALAT1 triple helix [3]): destabilizing
